The source of these data is paper PMC5962642, “Dynamic imaging of adaptive stress response pathway activation for prediction of drug induced liver injury” (Archives of Toxicology, 2018).

For data set [1] the following is noted: ref livertox.nih.gov database; cited from earlier work.
The test system of data set [2] is Srxn1-GFP (oxidative stress). Nature of the data set: HepG2 Srxn1-GFP BAC reporter, live cell confocal imaging (oxidative stress). The format is cell-based, Human. The following applies: for Srxn1-GFP reporter response: HepG2 BAC-GFP, 24 h live imaging, 1-100 C-max; for activation of Srxn1-GFP and/or CHOP-GFP (cluster 3): cluster description, reporter not resolved per drug (Srxn1-GFP and/or CHOP-GFP); for Srxn1-GFP response at the intensity feature level (cell population): GFP intensity over the single cell population. As for the experimental part: Human hepatoma HepG2 cells were acquired from ATCC (clone HB8065). HepG2 Srxn1, DDIT3 (CHOP), CDKN1A (p21) and ICAM1 BAC GFP reporter cell lines were previously established and characterized (Wink et al. [2017]). HepG2 BAC GFP reporters were maintained and exposed to drugs in DMEM high glucose supplemented with 10% (v/v) FBS, 25 U/mL penicillin and 25 µg/mL streptomycin. The cell lines were used between passage 5 and 25. For live cell imaging, the cells were seeded in Greiner black µ-clear 384 wells plates, at 8000 cells per well.
Accumulation of GFP levels, propodium iodide (PI) and Hoechst staining was monitored using a Nikon TiE2000 confocal laser microscope (lasers 540, 488 and 408 nm), equipped with an automated stage and perfect focus system at 37 °C with humidified atmosphere and 5% CO2/air mixture. All imaging was similar as previously described^5. Each 384-well plate contained one reporter cell line, which was exposed to all the compounds used in the screen at one certain concentration (1, 5, 10, 50 or 100 Cmax); for each concentration at least two replicates were imaged per reporter cell line. For the ICAM1-GFP reporter experiments, cells were first exposed for 8 h to compound only; next, TNFα was added to all wells, up to a final concentration of 10 ng/mL. Directly after TNFα treatment the live cell imaging was started.
Quantitative image analysis was performed with CellProfiler version 2.1.1 (Kamentsky et al. [2011]) with an in house developed CellProfiler module implementing the watershed masked algorithm for segmentation (Yan and Verbeek [2012]; Wink et al. [2017]). Image analysis results were stored as HDF5 files. Data analysis, quality control and graphics were performed using the in house developed R package h5CellProfiler (manuscript in preparation). For each reporter hourly intensity levels of the GFP signal, the nuclear Hoechst33342 intensity levels and at 24 h the PI staining were measured at the single cell level. In addition, cell numbers, nuclei size and cell motility were measured.
GFP intensity cell population means were calculated. In addition, for each plate the cell population mean GFP intensity of the DMSO treated cells was calculated to determine background control values. Per plate, the single cells that had values above the 2X mean, 3X mean were counted resulting in GFP positive fraction measures. For ICAM1, the background control values consisted of DMSO conditions treated with TNFα, and the single cells with values above, as well as below background values were counted. Due to the non-symmetric distribution of ICAM1 cell population GFP intensities, the interquartile range (IQR) was used to count the number of cells 1.5, 2 and 3 times above and below the TNFα IQR control values (Supplemental Fig. 1).
The maximum values over time of the scaled intensity levels and positive GFP fractions were selected for the concentration response curves. These values were fit to a four parameter log-logistic model using the drc package (Ritz et al. [2015]). BMC values were calculated as the concentration at which + 0.25 (and − 0.25 for ICAM1) absolute increase from the initial response values occurred (Fig. 5a).

The test system of data set [3] is ICAM1-GFP (NF-κB-mediated inflammatory signaling). As to the kind of experiment: HepG2 ICAM1-GFP BAC reporter, TNFα-induced, live cell confocal imaging. The format is cell-based, Human. The settings on record: HepG2 BAC-GFP, 8 h compound then TNFα 10 ng/mL, 24 h live imaging, 1-100 C-max. As to the method: Human hepatoma HepG2 cells were acquired from ATCC (clone HB8065). HepG2 Srxn1, DDIT3 (CHOP), CDKN1A (p21) and ICAM1 BAC GFP reporter cell lines were previously established and characterized (Wink et al. [2017]). […] The cell lines were used between passage 5 and 25. For live cell imaging, the cells were seeded in Greiner black μ-clear 384 wells plates, at 8000 cells per well. […] All imaging was similar as previously described^5. […] Directly after TNFα treatment the live cell imaging was started. Quantitative image analysis was performed with CellProfiler version 2.1.1 ([…] et al. [2011]) with an in house developed CellProfiler module implementing the watershed masked algorithm for segmentation (Yan and Verbeek [2012]; Wink et al. [2017]). Image analysis results were stored as HDF5 files. Data analysis, quality control and graphics were performed using the in house developed R package h5CellProfiler (manuscript in preparation). For each reporter hourly intensity levels of the GFP signal, the nuclear Hoechst33342 intensity levels and at 24 h the PI staining were measured at the single cell level. In addition, cell numbers, nuclei size and cell motility were measured. GFP intensity cell population means were calculated. In addition, for each plate the cell population mean GFP intensity of the DMSO treated cells was calculated to determine background control values. Per plate, the single cells that had values above the 2X mean, 3X mean were counted resulting in GFP positive fraction measures. For ICAM1, the background control values consisted of DMSO conditions treated with TNFα, and the single cells with values above, as well as below background values were counted. […] Linear regression was applied with respect to time to quantify treatment effects on a plate-to-plate basis to quantify cell speed, nuclear size, Hoechst nuclear intensity and cell numbers. […] The maximum values over time of the scaled intensity levels and positive GFP fractions were selected for the concentration response curves. These values were fit to a four parameter log-logistic model using the drc package (Ritz et al. [2015]). BMC values were calculated as the concentration at which + 0.25 (and - 0.25 for ICAM1) absolute increase from the initial response values occurred (Fig. 5a).

For data set [4] the following is noted: ref Chen et al. [2016], cited from earlier work; for DILI con. (DILI-concern labeling): FDA DILI labeling; for Hepa. (hepatotoxicity class): FDA labeling in eight classes of hepatotoxicity.
The conditions of data set [5]: C-max obtained from FDA or literature; ref per compound (FDA, Dailymed, Xu, O’Brien, Khetani, Regenthal, Gustafsson, Dawson, Ogutu, Patel, Schmidt, Ravic, Keisu, Hu, Wagner); cited from earlier work.
Data set [6] deals with CHOP-GFP (ER stress/UPR response). As to the kind of experiment: HepG2 CHOP-GFP BAC reporter, live cell confocal imaging (ER stress/UPR). The format is cell-based, Human. The following applies: for CHOP-GFP reporter response: HepG2 BAC-GFP, 24 h live imaging, 1-100 C-max.
For data set [7] the following is noted: two classes made from the FDA DILI-concern labeling.
Where [8] appears, read: order of responses in 24 h, 100× C-max printed for nimesulide, rifampicin, oxytetracycline.

Entries after “also recorded” stand apart in the source; their conditions may differ.

`CC(=O)Nc1ccc(O)cc1` [Acetaminophen]: in data set [1], the “Metab (metabolic potential)” value is “YES”. Besides, the Srxn1-GFP reporter response entry in data set [2] is “activation”.

For `Cn1cnc([N+](=O)[O-])c1Sc1ncnc2nc[nH]c12` [Azathioprme, azathioprine], the “Metab (metabolic potential)” value in data set [1] is recorded as “YES”. Besides, in data set [3], the “modulation of TNFα-induced ICAM1-GFP response” value (“modulation” below) is “enhancing; also recorded: mild Srxn1-GFP and ICAM1-GFP activation”. Besides, in data set [2], the Srxn1-GFP reporter response result is “mild Srxn1-GFP and ICAM1-GFP activation”. In data set [4], the “DILI con. (DILI-concern labeling)” value is “Most-DC” and the “Hepa. (hepatotoxicity class)” value is recorded as 5. In addition, in data set [5], the Cmax (usually the highest concentration seen after dosing) was 0.34 µM.

Regarding `CCc1oc2ccccc2c1C(=O)c1cc(Br)c(O)c(Br)c1` [Benzbromarone], the “Metab (metabolic potential)” value in data set [1] is “YES”. In data set [3], the “modulation” value was “mild ICAM1-GFP suppression”. Moreover, the “activation of Srxn1-GFP and/or CHOP-GFP (cluster 3)” value (“activation … (cluster 3)” below) in data set [2] is recorded as “activation of Srxn1-GFP and/or CHOP-GFP”. For the same compound, in data set [4], the “DILI con. (DILI-concern labeling)” value is on record as “Most-DC” and the “Hepa. (hepatotoxicity class)” value is on record as 8. Moreover, the Cmax in data set [5] is 4.34 µM.

Turning to `Nc1c(CC(=O)O)cccc1C(=O)c1ccc(Br)cc1` [Bromfenac], the “modulation” value in data set [3] is “mild ICAM1-GFP suppression”. Moreover, the “activation … (cluster 3)” value in data set [2] is “activation of Srxn1-GFP and/or CHOP-GFP”. Also, in data set [4], the “DILI con. (DILI-concern labeling)” value is reported as “Most-DC” and the “Hepa. (hepatotoxicity class)” value was 8. For the same compound, in data set [5], the Cmax was 18 µM.

With `CN(C)CCCN1c2ccccc2Sc2ccc(Cl)cc21` [Chlorpromazine], in data set [1], the “Metab (metabolic potential)” value was “YES”. For the same compound, in data set [2], the “Srxn1-GFP response at the intensity feature level (cell population)” value is “would not have been defined as positive”. Moreover, in data set [4], the “DILI con. (DILI-concern labeling)” value is listed as “Less-DC” and the “Hepa. (hepatotoxicity class)” value was 2. Further, the Cmax in data set [5] is 0.94 µM.

As to `CN1CCN(C2=Nc3cc(Cl)ccc3Nc3ccccc32)CC1` [Clozapine], the “Metab (metabolic potential)” value in data set [1] is recorded as “YES”. Moreover, the “modulation” value in data set [3] was “strong ICAM1-GFP suppression”. In addition, the CHOP-GFP reporter response entry in data set [6] is listed as “CHOP-GFP activation”. Besides, in data set [5], the Cmax is 2.44 µM.

As for `COc1cc2c(c(OC)c1OC)-c1ccc(OC)c(=O)cc1[C@@H](NC(C)=O)CC2` [Colchicine], the “Metab (metabolic potential)” value in data set [1] is on record as “YES”. Moreover, in data set [3], the “modulation” value was “mild Srxn1-GFP and ICAM1-GFP activation”. In data set [2], the Srxn1-GFP reporter response entry is “mild Srxn1-GFP and ICAM1-GFP activation”. In data set [4], the “DILI con. (DILI-concern labeling)” value is reported as “Amb.-DC” and the “Hepa. (hepatotoxicity class)” value is 6. Further, in data set [5], the Cmax was 0.016 µM. The Severity class result in data set [7] is on record as “Non-sev”.

For `O=C1CN(/N=C/c2ccc(-c3ccc([N+](=O)[O-])cc3)o2)C(O)=N1` [Dantrolene], in data set [1], the “Metab (metabolic potential)” value is “YES”. Besides, the “modulation” value in data set [3] is recorded as “mild ICAM1-GFP suppression”. In data set [2], the “activation … (cluster 3)” value was “activation of Srxn1-GFP and/or CHOP-GFP”. Moreover, in data set [4], the “DILI con. (DILI-concern labeling)” value was “Most-DC” and the “Hepa. (hepatotoxicity class)” value is given as 8. Further, the Cmax in data set [5] is 7.9 µM.

`O=C(O)Cc1ccccc1Nc1c(Cl)cccc1Cl` [Diclofenac]: the “modulation” value in data set [3] is reported as “inhibiting; also recorded: mild ICAM1-GFP suppression”. Besides, the “activation … (cluster 3)” value in data set [2] is given as “activation of Srxn1-GFP and/or CHOP-GFP”. In addition, the Cmax in data set [5] is 10.1 µM. The Severity class result in data set [7] is given as “Sev”.

In the case of `CCOC(=O)/C=C\C(=O)OCC` [Diethylmaleate], the Srxn1-GFP reporter response result in data set [2] was “strong inducers”.

In the case of `CC(C)NNC(=O)c1ccncc1` [Iboniazid], the “Metab (metabolic potential)” value in data set [1] is “YES”. In addition, in data set [4], the “DILI con. (DILI-concern labeling)” value is given as “Most-DC” and the “Hepa. (hepatotoxicity class)” value is 8. Also, the Cmax in data set [5] is 76.6 µM. For the same compound, the Severity class result in data set [7] is “Sev”.

For the compound `CC(=O)N1CCN(c2ccc(OCC3COC(Cn4ccnc4)(c4ccc(Cl)cc4Cl)O3)cc2)CC1` (stereo not drawn) [Ketoconazole], the “Srxn1-GFP response at the intensity feature level (cell population)” value in data set [2] was “no Srxn1-response”. The “earliest concentration with Srxn1 response, %GFP positive marker” value in data set [2] (multiples of C-max) is recorded as 50 C-max. Besides, in data set [4], the “DILI con. (DILI-concern labeling)” value is recorded as “Most-DC” and the “Hepa. (hepatotoxicity class)” value was 8. Also, the Cmax in data set [5] was 6.59 µM.

Take `CN(C)[C@@H]1C(O)=C(C(N)=O)C(=O)[C@@]2(O)C(O)=C3C(=O)c4c(O)cccc4[C@@](C)(O)[C@H]3[C@H](O)[C@@H]12` [Oxytetracycline]: the “Srxn1-GFP response, time dynamics relative to CHOP-GFP” value in data set [2] (setting [8]) is “delayed Srxn1-GFP response”. In addition, in data set [6] (setting [8]), the “CHOP-GFP response, time dynamics relative to Srxn1-GFP” value is on record as “initial CHOP-GFP response”. In data set [4], the “DILI con. (DILI-concern labeling)” value is given as “Amb.-DC” and the “Hepa. (hepatotoxicity class)” value is on record as 2. Also, the Cmax in data set [5] is 3.26 µM.

Consider `CC1=C(CC(=O)O)c2cc(F)ccc2/C1=C\c1ccc([S+](C)[O-])cc1` (stereo not drawn) [Sulindac], for which the “Metab (metabolic potential)” value in data set [1] was “YES”. Moreover, in data set [2], the Srxn1-GFP reporter response result was “activation”. For the same compound, in data set [4], the “DILI con. (DILI-concern labeling)” value was “Most-DC” and the “Hepa. (hepatotoxicity class)” value is given as 8. Moreover, the Cmax in data set [5] is 32 µM.

Turning to `C/C=C(/C)C(=O)O[C@H]1C(C)=C2[C@H]([C@@H]1OC(=O)CCCCCCC)[C@@](C)(OC(C)=O)C[C@H](OC(=O)CCC)[C@@]1(O)[C@H]2OC(=O)[C@@]1(C)O` [Thapsigargin], the CHOP-GFP reporter response result in data set [6] was “strong inducers”.

With `Cc1ccc(C(=O)c2cc(O)c(O)c([N+](=O)[O-])c2)cc1` [Tolcapone], the “Metab (metabolic potential)” value in data set [1] was “YES”. Further, in data set [4], the “DILI con. (DILI-concern labeling)” value is reported as “Most-DC” and the “Hepa. (hepatotoxicity class)” value was 8. In data set [5], the Cmax was 22 µM. Also, the Severity class result in data set [7] is on record as “Sev”.
